Our source for the IC50 values is US20110313021A1, “Method to rapidly identify critical p53 target genes that can be utilized for therapeutic intervention” (priority 2010, published 2011).

This test addresses T1, GST-tagged recombinant MCAK protein (amino acids 182 to 646 of the human MCAK protein) (Homo sapiens, UniProt Q99661).
T1 construct: corresponding to amino acids 182 to 646 of the human MCAK protein; GST; purchased Cytoskeleton, Denver Colo
Nature of the test: MCAK ATPase assay. It counts as biochemical. The conditions noted are these: dose-response, read-out: 50% inhibitory concentration (IC50) for MCAK activity. An excerpt:
Based on the instant data supporting a role for MCAK in p53 mediated cell death, it can be reasoned that MCAK will also fill a therapeutic niche for rational drug design targeting the mitotic checkpoint. Importantly, cancer cells with abrogated p53 contain high levels of MCAK, thereby providing a genetic determinant for therapeutic use of MCAK inhibitors. Accordingly, the inventor sought to identify and characterize inhibitors of MCAK function. MCAK utilizes the energy of Adenosine triphosphate (ATP) hydrolysis to carry out its MT depolymerization function. The inventor exploited this characteristic to utilize and optimize a commercially available in vitro assay that measures MCAK ATPase activity (Cytoskeleton, Denver Colo.). The components of the assay are: recombinant MCAK protein, ATP, pre-formed MTs, detection reagent for inorganic phosphate (Pi), and the appropriate buffers for the reaction. We utilized a glutathione S-transferase (GST)-tagged recombinant MCAK protein corresponding to amino acids 182 to 646 of the human MCAK protein, a region of the protein that contains the kinesin motor domain of MCAK. The ATPase activity of MCAK directly correlates to the presence of Pi in the reaction mixture.
The inventor used the MCAK ATPase to carry out a high-throughput screen (HTS) of a library of synthetic small molecules and various natural products. […]

T1 sequence (Q99661 182-646): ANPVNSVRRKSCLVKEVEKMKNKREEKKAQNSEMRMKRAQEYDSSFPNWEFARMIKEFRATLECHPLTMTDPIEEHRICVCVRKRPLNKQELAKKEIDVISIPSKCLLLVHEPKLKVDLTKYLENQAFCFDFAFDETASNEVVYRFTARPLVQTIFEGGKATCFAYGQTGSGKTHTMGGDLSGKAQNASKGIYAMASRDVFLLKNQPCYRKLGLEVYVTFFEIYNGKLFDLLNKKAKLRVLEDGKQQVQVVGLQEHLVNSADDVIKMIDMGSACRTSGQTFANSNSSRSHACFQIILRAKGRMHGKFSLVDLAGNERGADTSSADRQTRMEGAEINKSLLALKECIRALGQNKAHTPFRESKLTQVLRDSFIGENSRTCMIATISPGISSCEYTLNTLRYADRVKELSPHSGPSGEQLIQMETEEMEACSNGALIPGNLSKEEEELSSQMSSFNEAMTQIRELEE

Consider `Cc1cc2c(C(C)C)c(O)c(O)c(C=O)c2c(O)c1-c1c(C)cc2c(C(C)C)c(O)c(O)c(C=O)c2c1O` [gossypol], for which the IC50 is approximately 11 µM.
